Reference: patent US20060275339A1, “Use of antiseptic active principles in pmma bone cements” (Biomet Deutschland, priority 2003, published 2006)

System: germs
Assay: Prevention of colonisation of the PMMA bone cement surface with germs (FIGS. 1a and 1b)
Format: cell-based
Conditions: 0.155% by weight admixed with PMMA bone cement (PALAMED plain); compared with admixing of 0.86% by weight of gentamicin

polyhexamethylenebiguanide
biological efficacy in preventing colonisation of the cement surface with germs: same (or higher) biological efficacy
